Results taken from patent US7276511B2, “Benzylamine derivative” (Zeria Pharmaceutical Co., Ltd., priority 2003, dated 2007).
Structures can show the parent of a compound that is named as a salt. Blank lines part the entries; values can stand above or below the molecule they belong to.

Tests used:
NK-1 receptor = NK-1 receptor (Homo sapiens, UniProt P25103); assay: NK-1 receptor-binding test ([3H]-Substance P, hNK1-CHO cells); design: expressed in transfected cells; host or cells: CHO-K1 cells (ATCC: CCL-61), G418-resistant, hNK1-CHO
Sequence of NK-1 receptor (P25103 whole entry): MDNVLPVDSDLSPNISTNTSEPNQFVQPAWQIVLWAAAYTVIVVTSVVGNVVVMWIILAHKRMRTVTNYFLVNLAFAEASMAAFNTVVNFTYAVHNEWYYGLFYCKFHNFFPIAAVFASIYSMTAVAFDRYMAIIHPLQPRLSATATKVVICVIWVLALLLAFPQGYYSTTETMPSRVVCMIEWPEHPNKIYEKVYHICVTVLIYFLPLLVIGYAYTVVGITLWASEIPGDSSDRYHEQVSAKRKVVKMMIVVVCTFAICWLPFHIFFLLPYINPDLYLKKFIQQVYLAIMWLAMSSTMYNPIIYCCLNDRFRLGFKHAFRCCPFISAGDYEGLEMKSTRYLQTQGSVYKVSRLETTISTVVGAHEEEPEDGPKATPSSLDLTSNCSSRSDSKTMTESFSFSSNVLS
Description: 1. NK-1 Receptor-binding Test
1) Preparation of Human NK-1 Receptor Expression Cells
FuGene 6 transfection reagent (Boegringer Mannheim) (3 μL) was diluted in an F-12 culture broth (97 μL), and pCR3.1 plasmid to which human NK-1 receptor cDNA had been introduced (Invitrogen) (10 μL) was added thereto. The mixture was mixed and incubated for 15 minutes (transfection reagent). CHO-K1 cells (ATCC: CCL-61) were cultured for 24 hours, and the whole reagent prepared above was added to the cultured CHO-K1 cells ([…]). Subsequently, culture was performed in the presence of G418 (Stratagene), and the resistant cells were employed as cells into which human NK-1 receptor gene was introduced (hNK1-CHO).
2) Subcultivation of hNK1-CHO Cells
The hNK1-CHO cells were treated with trypsin-EDTA and subcultivated in an F-12 culture broth (containing 10% fetal bovine serum, 10 mM HEPES, 100 U/mL, penicillin, 100 μg/mL streptmycin, 400 μg/mL G418) in a 75-cm^2 flask (FALCON). Cells to be employed in the receptor-binding experiment were added to a 24-well plate (IWAKI) at 1×10^5 cells/well, and subcultured for 48 hours at 37° C. under 95% […] and 5% CO2.
3) Receptor-binding Experiment
When the hNK1-CHO cells became subconfluent on the 24-well plate, an F-12 culture broth (containing 10 mM HEPES and 0.1% fetal bovine serum) (450 μL), [^3H]-Substance P (Amersham, final concentration 0.5 nM), and a test compound were added to the cells, and the mixture was incubated for 40 minutes at 37° C. For the measurement of non-specific binding, L703606 (Sigma) was added instead of the test compound. After completion of incubation, the mixture was washed with ice-cooled phosphate buffered saline containing 0.1% fetal bovine serum, and the cells were lysed with 1N NaOH (0.5 mL). The lysate was transfered to a plastic vial containing UltimaGold MV (5 mL), and the radioactivity was determined by means of a liquid liquid scintillation counter (Packard, 2000CA).
(§1) Percent radioactive ligand-receptor binding inhibition of each test compound was calculated by use of the following equation, and IC50 (nM) was determined through pseudo-Hill analysis.
(§2) Percent inhibition (%)=[1−(C−A)/(B−A)]×100
(§3) A: Radioactivity attributed to non-specific binding
(§4) B: Radioactivity without test compound
(§5) C: Radioactivity with test compound

[1] = biological target: T1, Cloned Neurokinin Receptor Subtype 2 Human (Homo sapiens, UniProt P21452); assay: NK-2 receptor-binding experiment ([3H]-SR48968, CHO cell membranes); conditions: Table 3; inhibition of [3H]-SR48968 (0.85 nM) binding, pseudo-Hill analysis
T1 construct: purchased Biosignal Packard; host or cells: CHO cells
T1 sequence (P21452 1-398): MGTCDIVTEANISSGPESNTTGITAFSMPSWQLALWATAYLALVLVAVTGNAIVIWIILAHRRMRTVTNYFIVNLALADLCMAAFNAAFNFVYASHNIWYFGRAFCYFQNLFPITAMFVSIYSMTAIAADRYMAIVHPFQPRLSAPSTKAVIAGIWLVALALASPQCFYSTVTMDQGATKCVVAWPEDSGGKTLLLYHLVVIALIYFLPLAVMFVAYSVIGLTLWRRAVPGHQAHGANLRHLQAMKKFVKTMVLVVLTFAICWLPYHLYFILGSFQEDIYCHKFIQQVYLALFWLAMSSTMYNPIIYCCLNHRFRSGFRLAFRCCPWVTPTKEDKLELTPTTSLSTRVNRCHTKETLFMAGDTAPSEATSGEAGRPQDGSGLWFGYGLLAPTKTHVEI
Description: 2. NK-2 Receptor-binding Experiment
Cloned Neurokinin Receptor Subtype 2 Human (CHO cells, Biosignal Packard), [^3H]-SR48968 (Amersham, final concentration 0.85 nM), and a test compound were mixed with 20 mM HEPES buffer, and the mixture was incubated for 50 minutes at 27° C. After completion of incubation, membrane components were collected by means of an automatic filtration apparatus (Brandel) onto a GF/C glass fiber filter (Whatman).
Before use, in order to prevent non-specific binding, the glass fiber filter had been pre-treated with 0.1% polyethylene imine solution for about 4 hours.
The filter employed to collect the membrane components was transferred to a plastic vial containing UltimaGold MV (5 mL), and measured by means of a liquid scintillation counter (Packard, 2000CA) in terms of the radioactivity.
as §1, §2, §3, §4, §5

Compound: CN(C[C@](CCCN1CCC2(CC1)c1ccccc1C[S@+]2[O-])(c1ccc(Cl)c(Cl)c1)N(C)C(=O)Oc1ccc(Cl)cc1)C(=O)CC(F)(F)F [Compound No. 633, 4-chlorophenyl(1-(3,3,3-trifluoro-N-methylpropanamido)-2-(S)-(3,4-dichlorophenyl)-5-[spiro(benzo(c)thiophene-(2S)-oxido-1(3H),4′-piperidin)-1′-yl]pentan-2-yl}methylcarbamate hydrochloride]
IC50 (NK-1 receptor): 8.3 nM

Compound: CN(C[C@](CCCN1CCC2(CC1)c1ccccc1C[S@+]2[O-])(c1ccc(Cl)c(Cl)c1)N(C)C(=O)Oc1ccccc1)C(=O)C(F)(F)F [Compound No. 642, phenyl{1-(2,2,2-trifluoro-N-methylacetamide)-2-(S)-(3,4-dichlorophenyl)-5-[spiro(benzo(c)thiophene-(2S)-oxido-1(3H),4′-piperidin)-1′-yl]pentan-2-yl}methylcarbamate hydrochloride]
IC50 (NK-1 receptor): 3.7 nM

Compound: CN(C[C@](CCCN1CCC2(CC1)c1ccccc1C[S@+]2[O-])(c1ccc(Cl)c(Cl)c1)N(C)C(=O)Oc1cccc(F)c1)C(=O)CC(F)(F)F [Compound No. 634, 3-fluorophenyl{1-(3,3,3-trifluoro-N-methylpropanamido)-2-(S)-(3,4-dichlorophenyl)-5-[spiro(benzo(c)thiophene-(2S)-oxido-1(3H),4′-piperidin)-1′-yl]pentan-2-yl}methylcarbamate hydrochloride]
IC50 (NK-1 receptor): 2 nM

Compound: COc1cc(C(=O)N(C)C[C@](CCCN2CCC3(CC2)c2ccccc2C[S@+]3[O-])(c2ccc(Cl)c(Cl)c2)N(C)C(=O)Oc2ccccc2)cc(OC)c1OC [Compound No. 589, phenyl{1-(3,4,5-trimethoxy-N-methylbenzamide)-2-(S)-(3,4-dichlorophenyl)-5-[spiro(benzo(c)thiophene-(2S)-oxido-1(3H),4′-piperidin)-1′-yl]pentan-2-yl}methylcarbamate hydrochloride]
IC50 (NK-1 receptor): 0.53 nM

Compound: COc1cccc(OC(=O)N(C)[C@](CCCN2CCC3(CC2)c2ccccc2C[S@+]3[O-])(CN(C)C(=O)CC(F)(F)F)c2ccc(Cl)c(Cl)c2)c1 [Compound No. 637, 3-methoxyphenyl{1-(3,3,3-trifluoro-N-methylpropanamido)-2-(S)-(3,4-dichlorophenyl)-5-[spiro(benzo(c)thiophene-(2S)-oxido-1(3H), 41-piperidin)-1′-yl]pentan-2-yl}methylcarbamate hydrochloride]
IC50 (NK-1 receptor): 1.7 nM

Compound: CN(C[C@](CCCN1CCC2(CC1)c1ccccc1C[S@+]2[O-])(c1ccc(Cl)c(Cl)c1)N(C)C(=O)Oc1ccc(F)c(F)c1)C(=O)CC(F)(F)F [compound 655, 3,4-difluorophenyl{1-(3,3,3-trifluoro-N-methylpropanamido)-2-(S)-(3,4-dichlorophenyl)-5-[spiro(benzo(c)thiophene-(2S)-oxido-1(3H),4′-piperidin)-1′-yl]pentan-2-yl}methylcarbamate hydrochloride]
IC50 (NK-1 receptor): 1.3 nM

Compound: COc1cc(COCC(CCCN2CCC(C(N)=O)(c3ccccc3)CC2)(c2ccc(Cl)c(Cl)c2)N(C)C(=O)Oc2ccccc2)cc(OC)c1OC (racemic) [Compound No. 17, [4-(4-Carbamoyl-4-phenyl-piperidine-1-yl)-1-(3,4-dichloro-phenyl)-1-(3,4,5-trimethoxy-benzyloxymethyl)-butyl]-methyl-carbamic acid phenyl ester hydrochloride]
IC50 (NK-1 receptor): 1.5 nM

Results, then the molecule that gave them:

IC50 [1]: 2.6 nM
Compound: CN(C[C@](CCN1CCC2(CC1)c1ccccc1CS2(=O)=O)(c1ccc(Cl)c(Cl)c1)N(C)C(=O)Cc1ccccc1)C(=O)CC(F)(F)F [Compound No. 28, N-(1-(3,3,3-trifluoro-N-methylpropanamido)-2-(S)-(3,4-dichlorophenyl)-4-[spiro(benzo(c)thiophene-2,2-dioxido-1(3H),4′-piperidin)-1′-yl]butan-2-yl}-N-methyl-phenylacetamide hydrochloride]

IC50 [1]: 0.73 nM
Compound: CCN(C(=O)C(=O)N(C)[C@](CCN1CCC2(CC1)NC(=O)Cc1ccccc12)(CN(C)C(=O)C(C)C)c1ccc(Cl)c(Cl)c1)c1ccccc1 [Compound No. 40, N^1-{1-(N-methylisobutylamide)-2-(S)-(3,4-dichlorophenyl)-4-[3-oxo-3,4-dihydro-2H-spiro(isoquinoline-1,4′-piperidin)-1′-yl]butan-2-yl}-N^1-methyl-N^2-ethyl-N^2-phenyloxalamide hydrochloride]

IC50 [1]: 1.2 nM
Compound: CN(C[C@](CCN1CCC2(CC1)c1ccccc1C[S@+]2[O-])(c1ccc(Cl)c(Cl)c1)N(C)C(=O)c1ccccc1F)C(=O)CC(F)(F)F [Compound No. 30, N-{1-(3,3,3-trifluoro-N-methylpropanamido)-2-(S)-(3,4-dichlorophenyl)-4-[spiro(benzo(c)thiophene-(2S)-oxido-1(3H),4′-piperidin)-1′-yl]butan-2-yl}-N-methyl-2-fluorobenzamide hydrochloride]

IC50 [1]: 0.85 nM
Compound: CN(C[C@](CCN1CCC2(CC1)c1ccccc1C[S@+]2[O-])(c1ccc(Cl)c(Cl)c1)N(C)C(=O)c1ccccc1)C(=O)C(F)(F)F [Compound No. 26, N-{1-(2,2,2-trifluoro-N-methylacetamide)-2-(S)-(3,4-dichlorophenyl)-4-[spiro(benzo(c)thiophene-(2S)-oxido-1(3H),4′-piperidin)-1′-yl]butan-2-yl}-N-methylbenzamide hydrochloride]

IC50 [1]: 0.84 nM
Compound: CCN(C(=O)C(=O)N(C)[C@](CCN1CCC2(CC1)NC(=O)Cc1ccccc12)(CN(C)C(=O)CC(F)(F)F)c1ccc(Cl)c(Cl)c1)c1ccccc1 [Compound No. 41, N^1-{1-(3,3,3-trifluoro-N-methylpropanamido)-2-(S)-(3,4-dichlorophenyl)-4-[3-oxo-3,4-dihydro-2H-spiro(isoquinoline-1,4′-piperidin)-1′-yl]butan-2-yl}-N^1-methyl-N^2-ethyl-N^2-phenyloxalamide hydrochloride]

IC50 [1]: 0.75 nM
Compound: CN(C[C@](CCN1CCC2(CC1)c1ccccc1C[S@+]2[O-])(c1ccc(Cl)c(Cl)c1)N(C)C(=O)c1ccc(C(F)(F)F)cc1)C(=O)CC(F)(F)F [Compound No. 31, N-{1-(3,3,3-trifluoro-N-methylpropanamido)-2-(S)-(3,4-dichlorophenyl)-4-[spiro(benzo(c)thiophene-(2S)-oxido-1(3H),4′-piperidin)-1′-yl]butan-2-yl}-N-methyl-4-trifluoromethylbenzamide hydrochloride]

IC50 [1]: 6.7 nM
Compound: CN(C[C@](CCN1CCC2(CC1)NC(=O)Cc1ccccc12)(c1ccc(Cl)c(Cl)c1)N(C)C(=O)C(=O)N(C)c1ccccc1)C(=O)CC(F)(F)F [Compound No. 27, N^1-{1-(3,3,3-trifluoro-N-methylpropanamido)-2-(S)-(3,4-dichlorophenyl)-4-[3-oxo-3,4-dihydro-2H-spiro(isoquinoline-1,4′-piperidin)-1′-yl]butan-2-yl}-N^1,N^2-dimethyl-N^2-phenyloxalamide hydrochloride]

IC50 [1]: 1.7 nM
Compound: CN(C[C@](CCN1CCC2(CC1)NC(=O)Cc1ccccc12)(c1ccc(Cl)c(Cl)c1)N(C)C(=O)c1ccccc1)C(=O)C(F)(F)F [Compound No. 23, N-{1-(2,2,2-trifluoro-N-methylacetamide)-2-(S)-(3,4-dichlorophenyl)-4-[3-oxo-3,4-dihydro-2H-spiro(isoquinoline-1,4′-piperidin)-1′-yl]butan-2-yl}-N-methylbenzamide hydrochloride]
